Measurements from ChEMBL document CHEMBL4304741, “Modification and Biological Evaluation of a Series of 1,5-Diaryl-1,2,4-triazole Compounds as Novel Agents against Pancreatic Cancer Metastasis through Targeting Myoferlin” (J Med Chem, 2019).
Activity calls are given as the source filed them. The rule behind the calls is not given here.

Legend:
[1] = tested on: PANC-1; assay: Effect on E-cadherin expression in MYOF-knockout human PANC1 cells up to 400 nM by Western blot analysis; format: functional, cell-based
[2] = tested on: PANC-1; assay: Effect on dynein expression in human PANC1 cells up to 400 nM by Western blot analysis; format: functional, cell-based
[3] = tested on: PANC-1; assay: Antimigratory activity against MYOF-knockout human PANC1 cells measured after 18 hrs in presence of mitomycin C using crystal violet staining by inverted microscopy-based transwell assay; format: functional, cell-based
[4] = tested on: MIA PaCa-2; assay: Cytotoxicity against human MIAPaCa2 cells assessed as reduction in cell viability measured after 48 hrs by MTS assay; format: cell-based; conditions: MIA PaCa-2, 48 h
[5] = biological target: Cytochrome P450 2E1 (Homo sapiens, UniProt P05181); assay: Inhibition of CYP2E1 in human liver microsomes using chlorzoxazone as substrate preincubated for 5 mins followed by NADPH-generating system addition and measured after 20 mins by LC-MS/MS analysis
[6] = biological target: Cytochrome P450 2D6 (Homo sapiens, UniProt P10635); assay: Inhibition of CYP2D6 in human liver microsomes using tolbutamide as substrate preincubated for 5 mins followed by NADPH-generating system addition and measured after 20 mins by LC-MS/MS analysis
[7] = tested on: MCF-10A; assay: Cytotoxicity against human MCF10A cells assessed as reduction in cell viability measured after 48 hrs by MTS assay; format: cell-based
[8] = biological target: T1, Myoferlin (Homo sapiens, UniProt Q9NZM1); assay: Inhibition of MYOF in human PANC1 cells assessed as reduction in MMP1 secretion measured after 24 hrs by SDS-PAGE analysis; format: cell-based
[9] = tested on: PANC-1; assay: Effect on Snail1 expression in human PANC1 cells up to 400 nM by Western blot analysis; format: functional, cell-based
[10] = biological target: Cytochrome P450 2C9 (Homo sapiens, UniProt P11712); assay: Inhibition of CYP2C9 in human liver microsomes using tolbutamide as substrate preincubated for 5 mins followed by NADPH-generating system addition and measured after 20 mins by LC-MS/MS analysis
[11] = tested on: PANC-1; assay: Antimigratory activity against human PANC1 cells measured after 18 hrs in presence of mitomycin C using crystal violet staining by inverted microscopy-based transwell assay; format: functional, cell-based
[12] = tested on: PANC-1; assay: Cytotoxicity against human PANC1 cells assessed as reduction in cell viability at 0.1 to 1 uM measured after 18 hrs by MTS assay; format: cell-based; conditions: panc-1, 18 h
[13] = Cytotoxicity against human HPDE6c7 cells assessed as reduction in cell viability measured after 48 hrs by MTS assay; format: cell-based; conditions: HPDE6c7, 48 h
[14] = biological target: T1, Myoferlin; assay: Inhibition of MYOF in human PANC1 cells assessed as reduction in VEGFR2 level by Western blot analysis; format: cell-based
[15] = biological target: T1, Myoferlin; assay: Inhibition of MYOF in human PANC1 cells assessed as reversal of epithelial-mesenchymal transition by measuring up regulation of E-cadherin expression up to 400 nM by Western blot analysis; format: cell-based
[16] = Cytotoxicity against HAF cells assessed as reduction in cell viability measured after 48 hrs by MTS assay; format: cell-based; conditions: Homo sapiens
[17] = tested on: Capan-2; assay: Cytotoxicity against human Capan2 cells assessed as reduction in cell viability measured after 48 hrs by MTS assay; format: cell-based; conditions: Capan-2, 48 h
[18] = tested on: PANC-1; assay: Antimetastatic activity against human PANC1 cells harboring luciferase reporter gene xenografted in Balb/c nude mouse assessed as mouse survival at 25 mg/kg/day, ip (reference value: 25%); format: functional; conditions: PANC-1, ip
[19] = biological target: T1, Myoferlin; assay: Inhibition of MYOF in human PANC1 cells assessed as reduction in phospho-VEGFR2 level by Western blot analysis; format: cell-based
[20] = tested on: PANC-1; assay: Antimetastatic activity against human PANC1 cells harboring luciferase reporter gene xenografted in Balb/c nude mouse assessed as reduction in lung metastasis burden by measuring reduction in luminescence at 25 mg/kg/day, ip measured every 10 days by bioluminescence imaging analysis relative to control; format: functional
[21] = biological target: T2, Cytochrome P450 1A2 (Homo sapiens, UniProt P05177); assay: Inhibition of CYP1A2 in human liver microsomes using phenacetin as substrate preincubated for 5 mins followed by NADPH-generating system addition and measured after 20 mins by LC-MS/MS analysis
T2 sequence (P05177 whole entry): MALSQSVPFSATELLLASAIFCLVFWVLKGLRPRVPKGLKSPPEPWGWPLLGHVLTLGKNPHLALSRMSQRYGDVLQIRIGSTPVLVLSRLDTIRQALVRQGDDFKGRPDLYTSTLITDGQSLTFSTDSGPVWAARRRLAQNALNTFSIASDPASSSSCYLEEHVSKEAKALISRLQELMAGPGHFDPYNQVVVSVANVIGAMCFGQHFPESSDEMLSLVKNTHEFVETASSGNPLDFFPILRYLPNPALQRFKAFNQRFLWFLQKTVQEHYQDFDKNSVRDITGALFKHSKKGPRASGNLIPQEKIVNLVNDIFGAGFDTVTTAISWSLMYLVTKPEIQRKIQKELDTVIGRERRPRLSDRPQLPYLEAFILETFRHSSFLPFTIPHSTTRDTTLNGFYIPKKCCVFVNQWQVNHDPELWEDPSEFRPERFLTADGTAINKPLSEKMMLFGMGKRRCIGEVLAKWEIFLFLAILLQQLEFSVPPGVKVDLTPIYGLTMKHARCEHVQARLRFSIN

[22] = biological target: Vascular endothelial growth factor receptor 2 (Homo sapiens) (UniProt P35968); assay: Effect on VEGFR2 phosphorylation in MYOF-knockout human PANC1 cells up to 400 nM by Western blot analysis
[23] = biological target: T3, Cytochrome P450 2B6 (Homo sapiens, UniProt P20813); assay: Inhibition of CYP2B6 in human liver microsomes using bupropion as substrate preincubated for 5 mins followed by NADPH-generating system addition and measured after 20 mins by LC-MS/MS analysis
T3 sequence (P20813 whole entry): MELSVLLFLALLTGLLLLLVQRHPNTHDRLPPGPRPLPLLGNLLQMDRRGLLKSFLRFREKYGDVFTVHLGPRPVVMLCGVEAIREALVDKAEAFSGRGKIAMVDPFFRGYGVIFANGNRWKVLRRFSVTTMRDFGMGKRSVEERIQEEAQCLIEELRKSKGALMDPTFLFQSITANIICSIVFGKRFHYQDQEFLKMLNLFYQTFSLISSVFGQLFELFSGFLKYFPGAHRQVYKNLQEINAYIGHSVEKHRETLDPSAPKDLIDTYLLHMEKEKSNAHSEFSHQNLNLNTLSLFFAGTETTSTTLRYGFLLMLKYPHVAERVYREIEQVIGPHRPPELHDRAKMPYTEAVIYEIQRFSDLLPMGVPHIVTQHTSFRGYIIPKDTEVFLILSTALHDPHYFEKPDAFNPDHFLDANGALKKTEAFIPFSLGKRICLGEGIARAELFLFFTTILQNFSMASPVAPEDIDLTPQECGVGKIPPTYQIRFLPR

[24] = tested on: Capan-2; assay: Antimigratory activity against human Capan2 cells measured after 36 hrs in presence of mitomycin C using crystal violet staining by inverted microscopy-based transwell assay; format: functional, cell-based
[25] = tested on: PANC-1; assay: Antimigratory activity against MYOF-knockout human PANC1 cells transfected with pcDNA3.1-MYOF measured after 18 hrs in presence of mitomycin C using crystal violet staining by inverted microscopy-based transwell assay; format: functional, cell-based

T1 sequence (Q9NZM1 whole entry): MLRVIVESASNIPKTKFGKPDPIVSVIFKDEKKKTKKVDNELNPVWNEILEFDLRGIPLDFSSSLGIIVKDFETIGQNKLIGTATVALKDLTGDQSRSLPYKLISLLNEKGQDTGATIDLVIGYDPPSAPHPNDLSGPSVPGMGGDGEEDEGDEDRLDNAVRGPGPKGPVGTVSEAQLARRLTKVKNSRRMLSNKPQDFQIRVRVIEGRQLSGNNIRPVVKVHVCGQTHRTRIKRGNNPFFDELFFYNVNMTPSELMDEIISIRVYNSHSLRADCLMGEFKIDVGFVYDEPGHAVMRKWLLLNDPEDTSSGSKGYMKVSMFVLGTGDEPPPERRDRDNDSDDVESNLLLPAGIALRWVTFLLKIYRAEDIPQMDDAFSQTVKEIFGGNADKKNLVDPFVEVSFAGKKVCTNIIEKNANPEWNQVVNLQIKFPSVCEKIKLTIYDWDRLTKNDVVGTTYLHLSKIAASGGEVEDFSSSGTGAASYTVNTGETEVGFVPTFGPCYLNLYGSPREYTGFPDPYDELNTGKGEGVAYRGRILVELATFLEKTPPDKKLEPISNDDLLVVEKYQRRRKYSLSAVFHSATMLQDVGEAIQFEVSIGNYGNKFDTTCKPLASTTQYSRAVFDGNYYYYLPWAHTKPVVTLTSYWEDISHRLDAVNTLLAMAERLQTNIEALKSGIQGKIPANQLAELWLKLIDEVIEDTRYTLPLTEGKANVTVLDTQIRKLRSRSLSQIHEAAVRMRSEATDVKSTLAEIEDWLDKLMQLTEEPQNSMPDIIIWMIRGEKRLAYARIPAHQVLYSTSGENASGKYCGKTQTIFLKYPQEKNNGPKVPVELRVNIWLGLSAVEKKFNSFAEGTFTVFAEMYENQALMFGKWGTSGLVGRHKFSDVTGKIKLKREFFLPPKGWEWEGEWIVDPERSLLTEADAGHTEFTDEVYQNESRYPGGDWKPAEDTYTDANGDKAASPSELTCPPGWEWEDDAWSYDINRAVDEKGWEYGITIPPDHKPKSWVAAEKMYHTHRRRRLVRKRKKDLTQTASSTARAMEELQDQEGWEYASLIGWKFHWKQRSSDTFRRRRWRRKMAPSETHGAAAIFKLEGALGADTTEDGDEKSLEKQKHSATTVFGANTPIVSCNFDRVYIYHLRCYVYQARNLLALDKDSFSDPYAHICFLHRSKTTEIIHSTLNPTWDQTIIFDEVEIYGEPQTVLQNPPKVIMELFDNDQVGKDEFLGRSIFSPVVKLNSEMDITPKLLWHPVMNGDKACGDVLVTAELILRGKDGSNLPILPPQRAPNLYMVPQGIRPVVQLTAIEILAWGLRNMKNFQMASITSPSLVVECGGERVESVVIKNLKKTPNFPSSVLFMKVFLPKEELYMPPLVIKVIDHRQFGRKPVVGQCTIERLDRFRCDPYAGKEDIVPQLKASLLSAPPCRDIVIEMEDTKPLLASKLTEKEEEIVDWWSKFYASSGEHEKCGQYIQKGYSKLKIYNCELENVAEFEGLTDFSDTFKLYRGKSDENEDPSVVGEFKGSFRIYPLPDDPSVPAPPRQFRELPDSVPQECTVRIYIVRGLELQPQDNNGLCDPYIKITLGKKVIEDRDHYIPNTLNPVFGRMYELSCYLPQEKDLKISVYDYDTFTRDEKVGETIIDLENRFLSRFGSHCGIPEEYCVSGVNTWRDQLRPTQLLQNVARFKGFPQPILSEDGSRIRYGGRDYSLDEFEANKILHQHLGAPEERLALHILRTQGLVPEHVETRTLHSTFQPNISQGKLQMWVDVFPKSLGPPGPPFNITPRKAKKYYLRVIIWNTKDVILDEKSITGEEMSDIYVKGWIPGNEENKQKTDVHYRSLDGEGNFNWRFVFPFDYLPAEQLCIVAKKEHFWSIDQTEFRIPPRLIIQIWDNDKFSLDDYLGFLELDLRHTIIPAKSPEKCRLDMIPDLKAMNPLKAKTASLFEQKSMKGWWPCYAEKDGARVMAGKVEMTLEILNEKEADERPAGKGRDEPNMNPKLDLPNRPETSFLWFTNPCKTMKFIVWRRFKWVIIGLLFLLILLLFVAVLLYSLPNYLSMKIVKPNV
Sequence of Cytochrome P450 2E1 (P05181 whole entry): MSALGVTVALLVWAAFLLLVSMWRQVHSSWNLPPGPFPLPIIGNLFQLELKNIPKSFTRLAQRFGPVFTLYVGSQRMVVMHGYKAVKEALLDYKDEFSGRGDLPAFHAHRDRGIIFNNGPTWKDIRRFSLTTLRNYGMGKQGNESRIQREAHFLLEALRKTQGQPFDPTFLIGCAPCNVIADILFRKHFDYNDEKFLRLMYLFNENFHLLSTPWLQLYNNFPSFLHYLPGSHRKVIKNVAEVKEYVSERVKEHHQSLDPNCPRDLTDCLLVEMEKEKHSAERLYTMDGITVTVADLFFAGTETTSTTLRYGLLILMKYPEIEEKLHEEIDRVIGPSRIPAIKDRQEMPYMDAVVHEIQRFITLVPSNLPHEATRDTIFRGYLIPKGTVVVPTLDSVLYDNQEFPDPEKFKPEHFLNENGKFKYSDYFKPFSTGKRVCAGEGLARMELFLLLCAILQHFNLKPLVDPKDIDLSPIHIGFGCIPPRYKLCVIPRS
Sequence of Vascular endothelial growth factor receptor 2 (Homo sapiens) (P35968 whole entry): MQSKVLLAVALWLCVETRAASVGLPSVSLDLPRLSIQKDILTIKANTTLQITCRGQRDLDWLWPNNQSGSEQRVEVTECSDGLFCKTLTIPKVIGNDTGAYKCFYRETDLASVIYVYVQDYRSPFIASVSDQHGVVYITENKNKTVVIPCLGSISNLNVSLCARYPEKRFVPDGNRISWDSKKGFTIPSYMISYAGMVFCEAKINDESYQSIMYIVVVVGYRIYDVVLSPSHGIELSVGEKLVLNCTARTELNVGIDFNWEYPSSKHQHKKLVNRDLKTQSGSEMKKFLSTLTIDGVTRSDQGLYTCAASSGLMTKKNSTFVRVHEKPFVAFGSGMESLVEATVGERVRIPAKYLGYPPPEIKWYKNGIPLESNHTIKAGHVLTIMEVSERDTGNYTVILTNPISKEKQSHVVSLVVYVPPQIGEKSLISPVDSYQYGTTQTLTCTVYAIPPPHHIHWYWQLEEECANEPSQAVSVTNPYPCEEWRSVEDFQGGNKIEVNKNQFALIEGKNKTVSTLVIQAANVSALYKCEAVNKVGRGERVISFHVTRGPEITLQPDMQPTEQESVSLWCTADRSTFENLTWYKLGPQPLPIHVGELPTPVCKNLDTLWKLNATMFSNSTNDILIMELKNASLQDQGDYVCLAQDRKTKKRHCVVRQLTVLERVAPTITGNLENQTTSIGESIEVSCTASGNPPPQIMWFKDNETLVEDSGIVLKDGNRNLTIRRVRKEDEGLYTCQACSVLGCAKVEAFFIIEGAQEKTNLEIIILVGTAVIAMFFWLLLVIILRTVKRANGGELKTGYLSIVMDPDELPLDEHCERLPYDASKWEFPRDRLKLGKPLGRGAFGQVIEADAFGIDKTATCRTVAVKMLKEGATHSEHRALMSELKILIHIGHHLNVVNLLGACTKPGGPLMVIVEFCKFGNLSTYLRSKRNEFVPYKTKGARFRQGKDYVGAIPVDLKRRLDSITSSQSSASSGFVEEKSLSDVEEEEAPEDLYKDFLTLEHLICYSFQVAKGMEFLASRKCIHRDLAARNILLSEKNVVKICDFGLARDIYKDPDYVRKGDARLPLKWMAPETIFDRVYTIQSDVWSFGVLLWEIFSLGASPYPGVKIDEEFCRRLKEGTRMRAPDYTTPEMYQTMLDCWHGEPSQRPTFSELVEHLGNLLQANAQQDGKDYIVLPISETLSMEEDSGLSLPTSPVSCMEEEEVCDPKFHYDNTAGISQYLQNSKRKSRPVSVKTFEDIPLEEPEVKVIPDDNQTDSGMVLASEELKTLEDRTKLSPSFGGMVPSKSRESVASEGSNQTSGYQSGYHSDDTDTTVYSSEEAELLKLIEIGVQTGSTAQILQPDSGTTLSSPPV
Sequence of Cytochrome P450 2D6 (P10635 whole entry): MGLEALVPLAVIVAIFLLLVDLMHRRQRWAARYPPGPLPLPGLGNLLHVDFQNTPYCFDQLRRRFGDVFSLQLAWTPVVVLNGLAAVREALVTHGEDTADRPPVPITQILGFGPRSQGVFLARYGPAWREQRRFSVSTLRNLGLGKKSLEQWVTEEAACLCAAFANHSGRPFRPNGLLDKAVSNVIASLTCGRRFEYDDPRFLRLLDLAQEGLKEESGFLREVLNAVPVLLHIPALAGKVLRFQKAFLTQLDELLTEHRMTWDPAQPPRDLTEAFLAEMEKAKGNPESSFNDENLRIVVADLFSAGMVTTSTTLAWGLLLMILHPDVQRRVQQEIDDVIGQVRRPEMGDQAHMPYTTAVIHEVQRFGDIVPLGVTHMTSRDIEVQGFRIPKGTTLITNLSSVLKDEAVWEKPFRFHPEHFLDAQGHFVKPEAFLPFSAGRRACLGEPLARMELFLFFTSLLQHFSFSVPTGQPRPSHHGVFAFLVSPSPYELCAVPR
Sequence of Cytochrome P450 2C9 (P11712 whole entry): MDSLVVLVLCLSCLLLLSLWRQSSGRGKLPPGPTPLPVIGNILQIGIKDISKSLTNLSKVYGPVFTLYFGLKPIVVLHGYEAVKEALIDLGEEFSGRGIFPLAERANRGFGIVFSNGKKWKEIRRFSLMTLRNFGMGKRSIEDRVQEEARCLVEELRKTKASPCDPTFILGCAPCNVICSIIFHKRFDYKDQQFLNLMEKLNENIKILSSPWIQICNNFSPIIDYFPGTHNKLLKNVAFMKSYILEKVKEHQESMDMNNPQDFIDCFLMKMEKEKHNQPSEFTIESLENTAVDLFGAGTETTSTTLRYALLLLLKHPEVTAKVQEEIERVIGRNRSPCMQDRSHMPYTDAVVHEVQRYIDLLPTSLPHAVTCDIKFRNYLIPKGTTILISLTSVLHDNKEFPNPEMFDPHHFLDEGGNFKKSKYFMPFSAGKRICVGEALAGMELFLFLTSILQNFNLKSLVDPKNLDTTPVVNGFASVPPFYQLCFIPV

**Q.** With `CCc1nc(-c2ncc(OC)cn2)n(-c2cccc(C(=O)NCCCCc3ccccc3)c2)n1` as the compound, how does the Activity [1] read?
**A.** inactive

**Q.** And the Activity [2]?
**A.** inactive

**Q.** And the Activity [3]?
**A.** inactive

**Q.** What about the IC50 [4] of the same compound?
**A.** 1.54 µM

**Q.** And the IC50 [5]?
**A.** > 50 µM

**Q.** What about the IC50 [6] of the same compound?
**A.** 49.6 µM

**Q.** What about the IC50 [7] of the same compound?
**A.** 27.6 µM

**Q.** And the inhibition [8]?
**A.** Dose-dependent effect

**Q.** What about the Activity [9] of the same compound?
**A.** inactive

**Q.** And the IC50 [10]?
**A.** 20.5 µM

**Q.** And the Activity [11]?
**A.** Dose-dependent effect

**Q.** What about the IC50 ([11]; PANC-1, 18 h) of the same compound?
**A.** 0.11 µM

**Q.** What about the Activity [12] of the same compound?
**A.** Non-Toxic

**Q.** And the IC50 [13]?
**A.** 14.6 µM

**Q.** And the inhibition [14]?
**A.** Dose-dependent effect

**Q.** What about the inhibition [15] of the same compound?
**A.** Active

**Q.** What about the IC50 [16] of the same compound?
**A.** 8.54 µM

**Q.** And the IC50 [17]?
**A.** 2.85 µM

**Q.** What about the survival at 25 mg/kg/day [18] of the same compound?
**A.** 75%

**Q.** And the inhibition [19]?
**A.** Dose-dependent effect

**Q.** What about the “fold change (FC)” value [20] of the same compound?
**A.** 3

**Q.** And the IC50 [21]?
**A.** > 50 µM

**Q.** What about the Activity [22] of the same compound?
**A.** inactive

**Q.** What about the IC50 [23] of the same compound?
**A.** > 50 µM

**Q.** What about the Activity [24] of the same compound?
**A.** Dose-dependent effect

**Q.** What about the Activity [25] of the same compound?
**A.** Active
